Experimental data: patent US6479435B1, “Diaryl ethers and processes for their preparation and herbicidal and desiccant compositions containing them” (ISK Americas Incorporated, priority 1997, dated 2002)

Assays:
Type in all cases: in vivo
[1] = tested on: common ragweed (Ambrosia artemisiifolia L., AMBEL); assay: Post-emerge greenhouse herbicide test, phytotoxicity rating; settings: 14 days after application
How it was run: (§1)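 Scores use a 0 (no damage) to 100 (complete kill) scale, taken 14 days after a foliar spray. Acetone solutions with 0.25% v/v non-ionic surfactant were applied by track sprayer at 187 l/ha and 63-1000 g ai/ha to bottom-watered 2-3 leaf plants.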

[2] = tested on: field corn (Zea mays L., var. Dekalb 535, CORN); assay: Post-emerge greenhouse test, crop damage rating; settings: 14 days after application
How it was run: as §1

[3] = tested on: upland rice (Oryza sp., var.Tebonnet, RICE); assay: Post-emerge greenhouse test, crop damage rating; settings: 14 days after application
How it was run: as §1

[4] = tested on: field corn (Zea mays L., var. Dekalb 535, CORN); assay: Pre-emerge greenhouse test, crop damage rating; settings: 14 days after application, rating scale 0-100
How it was run: (§2)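 Visual 0–100 injury rating (100 = all plants dead) taken 14 days after treatment. Rates of 125–1000 g ai/ha in acetone, 187 l/ha, were sprayed onto soil one day post-sowing; pots were surface-watered to incorporate, then bottom-watered.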

[5] = tested on: upland rice (Oryza sp., var.Tebonnet, RICE); assay: Pre-emerge greenhouse test, crop damage rating; settings: 14 days after application, rating scale 0-100
How it was run: as §2

[6] = tested on: soybean (Glycine max L., var. Pella 86, SOY); assay: Pre-emerge greenhouse test, crop damage rating; settings: 14 days after application, rating scale 0-100
How it was run: as §2

[7] = tested on: redroot pigweed (Amaranthus retroflexus, AMARE); assay: Pre-emerge greenhouse herbicide test, phytotoxicity rating; settings: 14 days after application, rating scale 0-100
How it was run: as §2

[8] = tested on: sicklepod (Cassia obtusifolia, CASOB); assay: as above; settings: 14 days after application, rating scale 0-100
How it was run: as §2

[9] = tested on: barnyardgrass (Echinochloa crusgalli, ECHCG); assay: as above; settings: 14 days after application, rating scale 0-100
How it was run: as §2

[10] = tested on: ivyleaf morningglory (Ipomoea hederacea, IPOHE); assay: as above; settings: 14 days after application, rating scale 0-100
How it was run: as §2

[11] = tested on: Johnsongrass (Sorghum halepense, SORHA); assay: as above; settings: 14 days after application, rating scale 0-100
How it was run: as §2

[12] = tested on: lambsquarters (Chenopodium album, CHEAL); assay: as above; settings: 14 days after application, rating scale 0-100
How it was run: as §2

[13] = tested on: velvetleaf (Abutilon theophrasti, ABUTH); assay: as above; settings: 14 days after application, rating scale 0-100
How it was run: as §2

[14] = tested on: large crabgrass (Digitaria sanguinalis, DIGSA); assay: as above; settings: 14 days after application, rating scale 0-100
How it was run: as §2

[15] = tested on: green foxtail (Setaria viridis, SETVI); assay: as above; settings: 14 days after application, rating scale 0-100
How it was run: as §2

[16] = tested on: common ragweed (Ambrosia artemisiifolia L., AMBEL); assay: as above; settings: 14 days after application, rating scale 0-100
How it was run: as §2

[17] = tested on: soybean (Glycine max L., var. Pella 86, SOY); assay: Post-emerge greenhouse test, crop damage rating; settings: 14 days after application
How it was run: as §1

[18] = tested on: redroot pigweed (Amaranthus retroflexus, AMARE); assay: Post-emerge greenhouse herbicide test, phytotoxicity rating; settings: 14 days after application
How it was run: as §1

[19] = tested on: sicklepod (Cassia obtusifolia, CASOB); assay: as above; settings: 14 days after application
How it was run: as §1

[20] = tested on: barnyardgrass (Echinochloa crusgalli, ECHCG); assay: as above; settings: 14 days after application
How it was run: as §1

[21] = tested on: ivyleaf morningglory (Ipomoea hederacea, IPOHE); assay: as above; settings: 14 days after application
How it was run: as §1

[22] = tested on: Johnsongrass (Sorghum halepense, SORHA); assay: as above; settings: 14 days after application
How it was run: as §1

[23] = tested on: lambsquarters (Chenopodium album, CHEAL); assay: as above; settings: 14 days after application
How it was run: as §1

[24] = tested on: velvetleaf (Abutilon theophrasti, ABUTH); assay: as above; settings: 14 days after application
How it was run: as §1

[25] = tested on: large crabgrass (Digitaria sanguinalis, DIGSA); assay: as above; settings: 14 days after application
How it was run: as §1

[26] = tested on: green foxtail (Setaria viridis, SETVI); assay: as above; settings: 14 days after application
How it was run: as §1

O=c1n(CCCF)nnn1-c1cc(Oc2ccc(C(F)(F)F)cn2)c(Cl)cc1Cl [Compound 6-9]
AMBEL phytotoxicity rating (0-100) ([1]; 63 g al/ha): 0 | AMBEL phytotoxicity rating (0-100) ([1]; 250 g al/ha): 0 | CORN crop damage rating (0-100) ([2]; 63 g al/ha): 0 | CORN crop damage rating (0-100) ([2]; 250 g al/ha): 0 | RICE crop damage rating (0-100) ([3]; 63 g al/ha): 0 | RICE crop damage rating (0-100) ([3]; 250 g al/ha): 0 | crop damage rating CORN ([4]; 125 g ai/ha): 0 | crop damage rating CORN ([4]; 500 g ai/ha): 0 | crop damage rating RICE ([5]; 125 g ai/ha): 0 | crop damage rating RICE ([5]; 500 g ai/ha): 0 | crop damage rating SOY ([6]; 125 g ai/ha): 0 | crop damage rating SOY ([6]; 500 g ai/ha): 0 | phytotoxicity rating AMARE ([7]; 125 g ai/ha): 0 | phytotoxicity rating AMARE ([7]; 500 g ai/ha): 0 | phytotoxicity rating CASOB ([8]; 125 g ai/ha): 0 | phytotoxicity rating CASOB ([8]; 500 g ai/ha): 0 | phytotoxicity rating ECHCG ([9]; 125 g ai/ha): 0 | phytotoxicity rating ECHCG ([9]; 500 g ai/ha): 0 | phytotoxicity rating IPOHE ([10]; 125 g ai/ha): 0 | phytotoxicity rating IPOHE ([10]; 500 g ai/ha): 0 | phytotoxicity rating SORHA ([11]; 125 g ai/ha): 0 | phytotoxicity rating SORHA ([11]; 500 g ai/ha): 0 | phytotoxicity rating CHEAL ([12]; 125 g ai/ha): 0 | phytotoxicity rating CHEAL ([12]; 500 g ai/ha): 0 | phytotoxicity rating ABUTH ([13]; 125 g ai/ha): 0 | phytotoxicity rating ABUTH ([13]; 500 g ai/ha): 0 | phytotoxicity rating DIGSA ([14]; 125 g ai/ha): 0 | phytotoxicity rating DIGSA ([14]; 500 g ai/ha): 0 | phytotoxicity rating SETVI ([15]; 125 g ai/ha): 0 | phytotoxicity rating SETVI ([15]; 500 g ai/ha): 0 | phytotoxicity rating AMBEL ([16]; 125 g ai/ha): 0 | phytotoxicity rating AMBEL ([16]; 500 g ai/ha): 0 | SOY crop damage rating (0-100) ([17]; 63 g al/ha): 0 | SOY crop damage rating (0-100) ([17]; 250 g al/ha): 0 | AMARE phytotoxicity rating (0-100) ([18]; 63 g al/ha): 0 | AMARE phytotoxicity rating (0-100) ([18]; 250 g al/ha): 0 | CASOB phytotoxicity rating (0-100) ([19]; 63 g al/ha): 0 | CASOB phytotoxicity rating (0-100) ([19]; 250 g al/ha): 0 | ECHCG phytotoxicity rating (0-100) ([20]; 63 g al/ha): 0 | ECHCG phytotoxicity rating (0-100) ([20]; 250 g al/ha): 0 | IPOHE phytotoxicity rating (0-100) ([21]; 63 g al/ha): 0 | IPOHE phytotoxicity rating (0-100) ([21]; 250 g al/ha): 0 | SORHA phytotoxicity rating (0-100) ([22]; 63 g al/ha): 0 | SORHA phytotoxicity rating (0-100) ([22]; 250 g al/ha): 0 | CHEAL phytotoxicity rating (0-100) ([23]; 63 g al/ha): 0 | CHEAL phytotoxicity rating (0-100) ([23]; 250 g al/ha): 0 | ABUTH phytotoxicity rating (0-100) ([24]; 63 g al/ha): 0 | ABUTH phytotoxicity rating (0-100) ([24]; 250 g al/ha): 0 | DIGSA phytotoxicity rating (0-100) ([25]; 63 g al/ha): 0 | DIGSA phytotoxicity rating (0-100) ([25]; 250 g al/ha): 0 | SETVI phytotoxicity rating (0-100) ([26]; 63 g al/ha): 0 | SETVI phytotoxicity rating (0-100) ([26]; 250 g al/ha): 0

COc1cc(OC)nc(Oc2cc(-n3nnn(CCCF)c3=O)c(F)cc2Cl)n1 [Compound 6-15]
AMBEL phytotoxicity rating (0-100) ([1]; 63 g al/ha): 0 | AMBEL phytotoxicity rating (0-100) ([1]; 500 g al/ha): 20 | CORN crop damage rating (0-100) ([2]; 63 g al/ha): 0 | CORN crop damage rating (0-100) ([2]; 500 g al/ha): 5 | RICE crop damage rating (0-100) ([3]; 63 g al/ha): 0 | RICE crop damage rating (0-100) ([3]; 500 g al/ha): 5 | crop damage rating CORN ([4]; 125 g ai/ha): 0 | crop damage rating CORN ([4]; 500 g ai/ha): 100 | crop damage rating RICE ([5]; 125 g ai/ha): 0 | crop damage rating RICE ([5]; 500 g ai/ha): 10 | crop damage rating SOY ([6]; 125 g ai/ha): 0 | crop damage rating SOY ([6]; 500 g ai/ha): 0 | phytotoxicity rating AMARE ([7]; 125 g ai/ha): 30 | phytotoxicity rating AMARE ([7]; 500 g ai/ha): 100 | phytotoxicity rating CASOB ([8]; 125 g ai/ha): 0 | phytotoxicity rating CASOB ([8]; 500 g ai/ha): 30 | phytotoxicity rating ECHCG ([9]; 125 g ai/ha): 0 | phytotoxicity rating ECHCG ([9]; 500 g ai/ha): 0 | phytotoxicity rating IPOHE ([10]; 125 g ai/ha): 0 | phytotoxicity rating IPOHE ([10]; 500 g ai/ha): 10 | phytotoxicity rating SORHA ([11]; 125 g ai/ha): 0 | phytotoxicity rating SORHA ([11]; 500 g ai/ha): 10 | phytotoxicity rating CHEAL ([12]; 125 g ai/ha): 20 | phytotoxicity rating CHEAL ([12]; 500 g ai/ha): 100 | phytotoxicity rating ABUTH ([13]; 125 g ai/ha): 20 | phytotoxicity rating ABUTH ([13]; 500 g ai/ha): 100 | phytotoxicity rating DIGSA ([14]; 125 g ai/ha): 10 | phytotoxicity rating DIGSA ([14]; 500 g ai/ha): 60 | phytotoxicity rating SETVI ([15]; 125 g ai/ha): 10 | phytotoxicity rating SETVI ([15]; 500 g ai/ha): 90 | phytotoxicity rating AMBEL ([16]; 125 g ai/ha): 0 | phytotoxicity rating AMBEL ([16]; 500 g ai/ha): 0 | SOY crop damage rating (0-100) ([17]; 63 g al/ha): 0 | SOY crop damage rating (0-100) ([17]; 500 g al/ha): 40 | AMARE phytotoxicity rating (0-100) ([18]; 63 g al/ha): 20 | AMARE phytotoxicity rating (0-100) ([18]; 500 g al/ha): 95 | CASOB phytotoxicity rating (0-100) ([19]; 63 g al/ha): 20 | CASOB phytotoxicity rating (0-100) ([19]; 500 g al/ha): 40 | ECHCG phytotoxicity rating (0-100) ([20]; 63 g al/ha): 0 | ECHCG phytotoxicity rating (0-100) ([20]; 500 g al/ha): 0 | IPOHE phytotoxicity rating (0-100) ([21]; 63 g al/ha): 20 | IPOHE phytotoxicity rating (0-100) ([21]; 500 g al/ha): 70 | SORHA phytotoxicity rating (0-100) ([22]; 63 g al/ha): 0 | SORHA phytotoxicity rating (0-100) ([22]; 500 g al/ha): 10 | CHEAL phytotoxicity rating (0-100) ([23]; 63 g al/ha): 50 | CHEAL phytotoxicity rating (0-100) ([23]; 500 g al/ha): 90 | ABUTH phytotoxicity rating (0-100) ([24]; 63 g al/ha): 60 | ABUTH phytotoxicity rating (0-100) ([24]; 500 g al/ha): 99 | DIGSA phytotoxicity rating (0-100) ([25]; 63 g al/ha): 0 | DIGSA phytotoxicity rating (0-100) ([25]; 500 g al/ha): 0 | SETVI phytotoxicity rating (0-100) ([26]; 63 g al/ha): 0 | SETVI phytotoxicity rating (0-100) ([26]; 500 g al/ha): 40
